The text below walks through data of article PMC6706930, “A novel oral micellar fenretinide formulation with enhanced bioavailability and antitumour activity against multiple tumours from cancer stem cells” (Journal of Experimental & Clinical Cancer Research : CR, 2019).

Series [1] is described as follows: Fecal excretion of 4-HPR and metabolites. The series is classed as in vivo, mice. Details: Fecal excretion, amount: unit not given here. How it is done: The oral pharmacokinetics of Bio-nFeR were investigated in four independent groups of 24 mice, randomized to receive different treatment with the following fenretinide equivalent doses: 10, 50, 100 and 200 mg/Kg. The drug was administered by oral gavage and after treatment, blood samples were taken at 15 and 30 min and at 1, 2, 4, 8/10, 24 and 48 h and collected in heparinized tubes from the retro-orbital plexus of the mice under isoflurane anesthesia. Mice were then sacrificed by cervical dislocation and liver, kidney and brain were removed and immediately frozen in dry-ice for future determination. To obtain plasma, blood was centrifuged at 4000 rpm for 10 min at 4 °C. To evaluate fenretinide and metabolites excretion, urine and faeces were collected over a 0–24 h and 24–48 h periods. The collection was performed in three mice per group of treatment, individually housed into metabolic cages for urine and faeces collection. All the biological samples were stored at − 20 °C until analysis. To compare the absorption of Bio-nFeR to NCI-FeR and to study the bioavailability, another independent groups of 24 mice were randomized to receive an oral dose of 200 mg/Kg of NCI-FeR. Blood samples were taken at the time reported above. Twenty-four hours fractions of urine and faeces were collected in three mice per group of treatment. Plasma and the other biological specimens were stored at − 20 °C until analysis. Chronic study: the oral pharmacokinetic of Bio-nFeR in comparison with NCI-FeR were also investigated after chronic administrations. Mice were divided in three independent groups, randomized to receive a single treatment of 150 mg/Kg or different repeated treatments of 150 mg/Kg, daily for 2 weeks (12 days on and 2 days off), or 100 mg/Kg bi-daily for 1 week (5 days on 2 days off). Bio-nFeR and NCI-FeR were administered by oral gavage, collecting blood samples at 0.5, 1, 2, 4, 8/10 and 24 h, the day of the single treatment and at 0, 1, 2, 4, 8/10, 24 and 48 h after the last dose of both the chronic treatments. The procedures of blood collection, plasma preparation, sacrifice of mice and storing of samples were as reported in acute study. Also during chronic treatment, excretions of fenretinide and metabolites in urine and faeces were determined collecting the specimens in three mice per group, both at the start of treatment and at the end of the repeated administration. All the collected samples were stored at − 20 °C until analysis.
The determination of fenretinide in plasma of mice and the others biological samples was determined according to a method specifically developed and validated for the quantification of fenretinide (4-HPR) based on liquid chromatography-tandem mass spectrometry (LC–MS/MS) (manuscript in preparation). The procedure of sample preparation and quantification can be summarized as follows. 30 μL aliquot of plasma was added with 3 ng of deuterated internal standard (^2H4 4-HPR), deproteinized by mean of 90 μL of acetonitrile and centrifuged 5 min at 13200 rpm at room temperature. The supernatant was recovered and 5 μL injected into a HPLC system (Series 200, Perkin Elmer, MA, USA). Chromatographic separation was achieved on a Gemini-C18 column (50 mm × 2.0 mm, 5 μm particle size; Phenomenex Inc., Torrance, CA, USA) at 32 °C protected with a Security Guard™ ULTRA cartridges C18. The detection obtained by Mass spectrometric detection was carried out on a triple quadrupole API 4000 mass spectrometer (Sciex, MA, USA) equipped with atmospheric pressure chemical ionization source (APCI) operating in positive ion mode monitoring the transitions 392.3 > 283.2 m/z for 4-HPR and 396.3 > 283.2 m/z for the deuterated internal standard. To assay study samples, a calibration curve of six points (range: 1.0–500.00 ng/mL) was prepared in control mouse plasma assessing the precision and the accuracy of the run analyzing at the same time a set of freshly prepared quality controls samples. […]

The conditions of series [2]: stated as known, no reference given; cited from earlier work.
Where [3] appears, read: 2 wks 1 daily dose 150 mg/kg Bio-nFeR.
Where [4] appears, read: 2 wks 1 daily dose 150 mg/kg NCI-FeR.
Setting [5] is: feces after 24 hours, acute Bio-nFeR 10 mg/kg.
[6] abbreviates: feces after 24 hours, acute Bio-nFeR 50 mg/kg.
The mark [7] stands for this setting: feces after 24 hours, acute Bio-nFeR 100 mg/kg.
The mark [8] stands for this setting: feces after 24 hours, acute Bio-nFeR 200 mg/kg.
The mark [9] stands for this setting: feces after 24 hours, acute NCI-FeR 200 mg/kg.
Where [10] appears, read: single admin. 150 mg/kg Bio-nFeR.
Where [11] appears, read: single admin. 150 mg/kg NCI-FeR.

SMILES strings stand for the structures.

As to `CC1=C(/C=C/C(C)=C/C=C/C(C)=C/C(=O)Nc2ccc(O)cc2)C(C)(C)CCC1` [4-HPR, 4-hydroxy (phenyl)retinamide, reference compound], the “Fecal excretion, amount” value in series [1] (setting [3]) amounted to 97.4; in series [1] (setting [4]), 270; in series [1] (setting [5]), 4.7; in series [1] (setting [6]) it was 38.2; in series [1] (setting [7]), 33.6; in series [1] (setting [8]), 77.4. Further, the “Fecal excretion, amount” value is 153.4 in series [1] (setting [9]), 129.5 in series [1] (setting [10]) and 247.1 in series [1] (setting [11]). Besides, the “Fecal excretion, percent (in brackets)” value in series [1] (setting [3]) was 4.2%; in series [1] (setting [4]), 7.6%; in series [1] (setting [5]), 3.2%; in series [1] (setting [6]), 4.0%; in series [1] (setting [7]) it was 1.9%; in series [1] (setting [8]) it was 2.5%. The “Fecal excretion, percent (in brackets)” value was 5.5% in series [1] (setting [9]), 6.1% in series [1] (setting [10]) and 9.2% in series [1] (setting [11]).
For `CC1=C(/C=C/C(C)=C/C=C/C(C)=C/C(=O)Nc2ccc(O)cc2)C(C)(C)CCC1=O` [4-oxo-4-HPR], the “Fecal excretion, amount” value in series [1] (setting [3]) came to 97.5; in series [1] (setting [4]) it was 201.1; in series [1] (setting [5]), 47; in series [1] (setting [6]) it was 253.8; in series [1] (setting [7]), 85.5; in series [1] (setting [8]), 129.8. For the same molecule, the “Fecal excretion, amount” value in series [1] (setting [9]) is 115.6; in series [1] (setting [10]) it was 108.4; in series [1] (setting [11]), 103.7. Besides, the “Fecal excretion, percent (in brackets)” value is 4.2% in series [1] (setting [3]); 6.6% in series [1] (setting [4]); 32.6% in series [1] (setting [5]); 26.5% in series [1] (setting [6]); 4.9% in series [1] (setting [7]); 4.3% in series [1] (setting [8]). In addition, the “Fecal excretion, percent (in brackets)” value is given as 3.9% in series [1] (setting [9]), 5.0% in series [1] (setting [10]) and 4.2% in series [1] (setting [11]).
For `COc1ccc(NC(=O)\C=C(C)/C=C/C=C(C)\C=C\C2=C(C)CCCC2(C)C)cc1` [MPR], the “activity of the metabolite” value in series [2] was “inactive”. In addition, the “Fecal excretion, amount” value in series [1] (setting [3]) stood at 0.9; in series [1] (setting [4]), 0.8; in series [1] (setting [5]) it was 0.03; in series [1] (setting [6]) it was 0.5; in series [1] (setting [7]), 0.7; in series [1] (setting [8]), 1.2. Besides, the entries for the “Fecal excretion, amount” value in series [1] (setting [9]), in series [1] (setting [10]) and in series [1] (setting [11]) were 0.4, 1.6 and 0.4, respectively. The “Fecal excretion, percent (in brackets)” value in series [1] (setting [3]) is 0.0%; in series [1] (setting [4]) it was 0.0%; in series [1] (setting [5]) it was 0.02%; in series [1] (setting [6]) it was 0.05%; in series [1] (setting [7]), 0.04%; in series [1] (setting [8]) it was 0.05%. Also, the “Fecal excretion, percent (in brackets)” value in series [1] (setting [9]) is on record as 0.02%; in series [1] (setting [10]), 0.1%; in series [1] (setting [11]) it was 0.02%. Further, the “proportion of Bio-nFeR and NCI-FeR eliminated in faeces” value in series [1] (acute treatment at multiple doses and chronic treatment) is recorded as “less than 0.1%”.
